Laboratory results published in EP4696689A1, “SALT FORM AND CRYSTAL FORM OF CHIRAL HETEROCYCLIC COMPOUND HAVING HEDGEHOG PATHWAY ANTAGONIST ACTIVITY” (Suzhou Kintor Pharmaceuticals, Inc., priority 2023, dated 2024).
Where two headings read alike, the source gives them in different places.

Columns and labels:
[1] = in vivo; settings: rat, po, 10 mg/kg
Experimental: Solvent A: 0.5% CMC-Na +0.2% Tween80
Preparation method: 5 g of sodium carboxymethyl cellulose (CMC-Na) was accurately weighed, 2 mL of Tween 80 was added, 998 mL of purified water was added, stirred and evenly mixed on a magnetic stirrer, and stored at room temperature.
After administration, blood was taken at different time points through orbit, and the blood samples were placed in a tube containing heparin sodium (as an anticoagulant), centrifuged by a cryocentrifuge and then stored in an environment of -80°C. An appropriate amount of plasma sample (50 µL) was taken into which (200 µL) cold acetonitrile containing the internal standard was added. The plasma protein was precipitated by centrifugation for 10 minutes. Finally, 100 µL of the supernatant was added and diluted with 100 µL of pure water and then injected into an LC-MS/MS system for analysis.
LC-MS/MS analysis method: All samples were analyzed by an LC-MS/MS system of an API 3000 mass spectrometer equipped with an Agilent 1100 series of liquid phase systems (Agilent, Japan). Column: Agilent XORBAX, XDB-C8 (50×2.1mm;3.5µm). Column temperature: room temperature, flow rate: 0.4 mL/min, total running time:7min.
For the quantitative analysis of MS/MS, the API3000 mass spectrometer is operated in the positive ESI mode with multiple reaction monitoring (MRM). All compounds and internal standards were monitored with a dwell time of 200 milliseconds. Other MS/MS parameter settings are as follows: Nebulizer gas (NEB): 12 psi, Gas curtain gas (CUR): 7 psi, Collision gas (CAD): 4 psi, Ion spray voltage: 5000V, Ion source temperature:500 °C. For the transitions of the selected ions, each analyte was tested under the optimal sensitivity clustering potential (DP) and collision energy (CE). Finally, the data were collected and processed using the SCIEX Analyst 1.5.2 data processing software system.
Preparation method: 0.1 g of sodium carboxymethyl cellulose (CMC-Na) was accurately weighed, 20 ml of purified water was added, and ultrasonic stirring was performed to dissolve it to obtain 0.5% CMC-Na.

[2] = body weight of tumor-bearing mice during treatment; settings: for Mean Body Weight at Day 0: before treatment; for Body Weight Change Rate (%) / Mean Body Weight at Dosing Endpoint: 17 days
[3] = hygroscopicity evaluation by dynamic vapor sorption (DVS); format: physicochemical
Experimental: The DVS curves were collected on a DVS Intrinsic from SMS (Surface Measurement Systems).The relative humidity at 25°C was corrected with the deliquescence points of LiCl, Mg (NO3)2 and KCl.

[4] = dynamic solubility in water and three biological solvents; format: physicochemical; settings: 37°C, feed 5 mg/ml, read-out: S: solubility
Experimental: Finally, the volume is fixed with purified water.
0.17 g of sodium dihydrogen phosphate (NaH2PO4, anhydrous), 0.021 g of sodium hydroxide and 0.31 g of sodium chloride were weighed into a 50 mL volumetric flask respectively, about 48 mL of purified water was added for dissolution, the pH was adjusted to exactly 6.5 with 1M hydrochloric acid or 1M sodium hydroxide, and the volume was fixed with purified water. 0.11 g of SIF powder was then added, stirred and sonicated to completely dissolve the powder. The solution can be used only after being placed at room temperature for two hours to reach equilibrium.
0.41 mL of glacial acetic acid, 0.20 g of sodium hydroxide and 0.59 g of sodium chloride were weighed into a 50 mL volumetric flask respectively, and about 48 mL of purified water was added for dissolution, the pH was adjusted to exactly 5.0 with 1M hydrochloric acid or 1M sodium hydroxide, and the volume was fixed with purified water. 0.56 g of SIF powder was then added, stirred and sonicated to completely dissolve the powder. The solution can be used only after being placed at room temperature for two hours to reach equilibrium.
The solubility results of the two samples in SGF, FASSIT and FeSSIF are similar. […] Table 4-1 Summary of the dynamic solubility test results

[5] = in vivo; settings: mouse, in vivo, po, 10 mg/kg
Experimental: The collected plasma samples were subjected to a protein precipitation method by using an organic reagent according to the following method to extract test article in the plasma, and the extracted sample was subjected to quantitative concentration analysis through the LC-MS/MS.
Meanwhile, an accompanying standard curve and quality control samples were prepared for quantitative analysis.
The fumarate salt form F of the compound of formula (I) Group: 50 µL of plasma at each time point was taken, 400 µL of acetonitrile was added, vortex mixing and centrifugation was performed at 10000 rpm for 10 min, and a 200 µL supernatant for LC-MS/MS analysis was taken. Meanwhile, an accompanying standard curve and quality control samples were prepared for quantitative analysis.
According to the plasma drug concentration data obtained through analysis, the main pharmacokinetic parameters were calculated according to the non-atrioventricular model by using Kinetic software (Version 5.0).

[6] = solid state stability (XRPD, HPLC, chiral purity); format: physicochemical
Experimental: The purity test, the dynamic solubility and the stability test are tested by the Agilent 1260/1100 high performance liquid chromatograph, and the analysis conditions and chiral purity test analysis conditions of the high performance liquid chromatography test are respectively as follows.
After placing the amorphous free base and fumarate crystal form F of the compound of formula (I) at 25°C/60% RH and 40°C/75% RH for 1 week, the physical and chemical stability of the sample is detected by XRPD and HPLC (at the same time the chiral purity of the sample is tested). […] Table 4-2 Solid Stability Evaluation Summary

[7] = pharmacokinetic study in mice; settings: same dose, intragastric administration
[8] = suspension competition experiment (thermodynamic stability of fumarate crystal forms); format: physicochemical; settings: from room temperature to 50°C
Experimental: To study the thermodynamic stability relationship among the crystal forms of the fumarate salt, a suspension competition experiment at room temperature and 50°C is performed on the fumarate salt anhydrous crystal forms A, B, C and F. […] Table 3-1 Summary of Suspension Contention Tests

[9] = tested on: Gli1 Gene; test: Gli1 mRNA expression in tumor tissues (RT-qPCR), Shh signaling pathway analysis; format: in vivo, CB-17/SCID mice; settings: for mRNA Expression Level of Glil Gene: tumor tissue 2 hours after last administration, GAPDH internal reference
Source text: Table 7-1 The Grouping and Drug Administration Plan
Primary tumor cells were extracted from Math1-Cre/Ptch1 ^C/C mice with spontaneous medulloblastoma and subcutaneously inoculated into CB-17/SCID mice to establish a xenograft model of medulloblastoma.
CB-17/SCID mice were subcutaneously injected with primary extracted medulloblastoma cells. After 3-4 weeks, a subset of mice developed tumors with volumes ranging from 150 to 300 mm^3.
From these mice, 25 tumor-bearing mice with uniform tumor sizes (with CV < 30%, CV = SD/Mean) were selected and randomly divided into 5 experimental groups (Vehicle, GDC-0449-10 mg/kg, Compound A-10 mg/kg, Compound A-3 mg/kg, Compound A-1 mg/kg) according to Table 2. Each group consisted of 5 mice per cage. Administration began on the day after grouping. The administration period was 3 days, with a frequency of BID. Tumor tissues were collected 2 hours after the last administration, and the mRNA expression level of the Glil gene in the tumor tissues was analyzed by RT-qPCR.
The tumor tissues were lysed by RNAiso Plius (TaKaRa, 108-95-2) to extractand RNA was then extracted using chloroform extraction and isopropanol precipitation methods. Subsequently, the mRNA level of the Glil gene was detected using a real-time fluorescence quantitative PCR instrument (ABI 7500), with GAPDH serving as the internal reference for quantitative analysis.
Experimental data in all tables are presented as "mean ± standard deviation" with error bars in figures representing standard error of the mean (SEM). Student's t-test was used to compare statistical differences in Glil gene mRNA expression levels in tumor tissues among treatment groups. All data were analyzed using GraphPad Prism 5.0. P-value <0.05 was considered statistically significant. ***, P<0.001; ##, P<0.01.
Glil is a target gene of the Hedgehog signaling pathway, and its mRNA expression level reflects the activation status of the hedgehog signaling pathway.

[10] = SCID tumor-bearing mice, i.g. BID × 3 days
[11] = pH 1.8, simulated gastric fluid, thermodynamic from solid, SGF
[12] = pH 5, thermodynamic from solid, FeSSIF
[13] = pH 6.5, thermodynamic from solid, FaSSIF
[14] = water, thermodynamic from solid, H2O

## Cc1cnc(-c2cc(N3CCc4nc(N5CCC(O)CC5)ncc4[C@H]3C)ncc2Cl)c(C)c1 [Fumarate crystal form F]
[1]
  AUC(0-t) at 24 h: 14300 ng·h/mL
  Cmax: 2850 ng/mL
  bioavailability: 97.5%
[2]; 1 mg/kg group
  Mean Body Weight at Day 0: 23.9 ± 3.1 g
[2]; 1 mg/kg i.g. BID
  Body Weight Change Rate (%): 17.2%
  Mean Body Weight at Dosing Endpoint: 28.0 ± 2.2 g
[2]; 3 mg/kg group
  Mean Body Weight at Day 0: 24.6 ± 1.8 g
[2]; 3 mg/kg i.g. BID
  Body Weight Change Rate (%): 8.5%
  Mean Body Weight at Dosing Endpoint: 26.7 ± 2.2 g
[2]; 10 mg/kg group
  Mean Body Weight at Day 0: 22.4 ± 2.1 g
[2]; 10 mg/kg i.g. BID
  Body Weight Change Rate (%): 13.8%
  Mean Body Weight at Dosing Endpoint: 25.5 ± 1.7 g
[2]; administered doses, i.g. BID × 17 days
  impact on the body weight of tumor-bearing mice during the treatment period: no significant impact
[3]; 25°C/80% RH, listed as fumarate crystal form F of the compound of formula (I)
  moisture adsorption: 0.3%
[3]; 25°C/80%RH
  Water adsorption (25°C/80%RH): 0.3
[4]; [11]
  solubility at 1 h: 3600 µg/mL
  solubility at 2 h: 3500 µg/mL
  solubility at 4 h: 3600 µg/mL
  solubility at 24 h: 3500 µg/mL
[4]; [12]
  solubility at 1 h: 2500 µg/mL
  solubility at 2 h: 2800 µg/mL
  solubility at 4 h: 3100 µg/mL
  solubility at 24 h: 3100 µg/mL
[4]; [13]
  solubility at 1 h: 220 µg/mL
  solubility at 2 h: 210 µg/mL
  solubility at 4 h: 230 µg/mL
  solubility at 24 h: 210 µg/mL
[4]; [14]
  solubility at 1 h: 110 µg/mL
  solubility at 2 h: 130 µg/mL
  solubility at 4 h: 140 µg/mL
  solubility at 24 h: 150 µg/mL
[5]
  AUC(0-inf): 16700 ng·h/mL
  AUC(0-t): 7500 ng·h/mL
  Cmax: 2410 ng/mL
  MRT: 15.6 h
  Tmax: 0.25 h
  half-life: 12.4 h
[6]; 25°C/60%RH_1w
  Chiral purity (%): 98.6%
  Purity (Area%): 99.7 Area%
  Purity/Initial purity (%): 100.1%
[6]; 40°C/75%RH_1w
  Chiral purity (%): 98.6%
  Purity (Area%): 99.6 Area%
  Purity/Initial purity (%): 100.0%
[6]; Start
  Chiral purity (%): 98.6%
  Purity (Area%): 99.6 Area%
[7]
  Cmax higher than that of the positive drug GDC-0449: about 1 fold
[8]
  thermodynamic stability among anhydrous crystal forms A, B, C and F: most thermodynamically stable
[9]; 1 mg/kg i.g. BID × 3 days
  mRNA Expression Level of Glil Gene: 0.609 ± 0.140
[9]; 3 mg/kg i.g. BID × 3 days
  mRNA Expression Level of Glil Gene: 0.359 ± 0.113
[9]; 10 mg/kg i.g. BID × 3 days
  mRNA Expression Level of Glil Gene: 0.045 ± 0.035
[9]; high-dose group (10 mg/kg)
  inhibition of Hedgehog signaling compared with the high-dose group of GDC-0449 (10 mg/kg): significantly stronger inhibition
[10]
  abnormal behaviors or animal deaths during the administration period: no abnormal behaviors or animal deaths
